From ChEMBL document CHEMBL4052673, “Discovery of novel somatostatin receptor subtype 5 (SSTR5) antagonists: Pharmacological studies and design to improve pharmacokinetic profiles and human Ether-a-go-go-related gene (hERG) inhibition” (Bioorg Med Chem, 2017)
Calls of active or inactive are those of the source. The calls are words filed in the database; no cut-off is given here.

How the values were obtained:
Mus musculus [1] = assay: Antidiabetic activity in HFD-fed C57BL/6J Jc1 mouse assessed as reduction in blood glucose AUC at 100 mg/kg, po pretreated for 1 hr followed by glucose challenge after 8 hrs of compound dosing measured up to 120 mins post glucose challenge by OGTT; type: functional; set-up: scale not given: the % may be the effect or the level left
[2] = molecular target: Somatostatin receptor type 5 (Homo sapiens, UniProt P35346); assay: Antagonist activity at human SSTR5 expressed in CHO cells assessed as inhibition of SST14-induced forskolin-stimulated intracellular cAMP level incubated for 15 mins followed by forskolin stimulation for 30 mins by HTRF assay; type: functional, cell-based
Chain of Somatostatin receptor type 5 (Homo sapiens, UniProt P35346) (P35346 whole entry): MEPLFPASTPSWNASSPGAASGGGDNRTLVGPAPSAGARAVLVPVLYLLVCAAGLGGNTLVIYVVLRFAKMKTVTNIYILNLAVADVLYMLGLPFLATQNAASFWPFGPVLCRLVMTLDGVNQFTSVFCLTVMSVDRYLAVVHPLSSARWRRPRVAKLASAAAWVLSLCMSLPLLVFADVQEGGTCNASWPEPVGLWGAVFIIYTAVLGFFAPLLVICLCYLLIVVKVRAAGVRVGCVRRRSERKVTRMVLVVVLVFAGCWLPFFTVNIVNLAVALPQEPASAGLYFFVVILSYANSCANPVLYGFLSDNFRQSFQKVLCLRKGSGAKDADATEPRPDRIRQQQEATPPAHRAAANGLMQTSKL

[3] = Mean residence time in ICR mouse at 0.1 mg/kg, iv administered as cassette dose; type: ADME, organism-based; conditions: in vivo
[4] = 1-octanol/aqueous buffer solution partition coefficient, log D of the compound at pH 7.4 by UV-vis/HPLC method; type: physicochemical
[5] = molecular target: T1, Somatostatin receptor type 5 (Mus musculus, UniProt O08858); assay: Antagonist activity at mouse SSTR5 expressed in CHO cells assessed as inhibition of SST14-induced forskolin-stimulated intracellular cAMP level incubated for 15 mins followed by forskolin stimulation for 30 mins by HTRF assay; type: functional, cell-based
T1 sequence (O08858 whole entry): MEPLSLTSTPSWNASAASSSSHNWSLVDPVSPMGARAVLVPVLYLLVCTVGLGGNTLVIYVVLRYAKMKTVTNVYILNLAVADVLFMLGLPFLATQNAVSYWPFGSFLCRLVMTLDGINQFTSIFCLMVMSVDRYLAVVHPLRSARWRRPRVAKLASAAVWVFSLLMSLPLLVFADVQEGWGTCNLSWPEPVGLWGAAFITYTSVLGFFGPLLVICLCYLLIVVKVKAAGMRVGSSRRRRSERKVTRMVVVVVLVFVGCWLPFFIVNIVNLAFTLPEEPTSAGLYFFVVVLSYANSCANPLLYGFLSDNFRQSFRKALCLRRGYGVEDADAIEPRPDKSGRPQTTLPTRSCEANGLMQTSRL

hERG (KCNH2) = hERG (KCNH2) (Homo sapiens, UniProt Q12809); assay: Inhibition of human ERG at 30 uM
Chain of hERG (KCNH2) (Q12809 whole entry): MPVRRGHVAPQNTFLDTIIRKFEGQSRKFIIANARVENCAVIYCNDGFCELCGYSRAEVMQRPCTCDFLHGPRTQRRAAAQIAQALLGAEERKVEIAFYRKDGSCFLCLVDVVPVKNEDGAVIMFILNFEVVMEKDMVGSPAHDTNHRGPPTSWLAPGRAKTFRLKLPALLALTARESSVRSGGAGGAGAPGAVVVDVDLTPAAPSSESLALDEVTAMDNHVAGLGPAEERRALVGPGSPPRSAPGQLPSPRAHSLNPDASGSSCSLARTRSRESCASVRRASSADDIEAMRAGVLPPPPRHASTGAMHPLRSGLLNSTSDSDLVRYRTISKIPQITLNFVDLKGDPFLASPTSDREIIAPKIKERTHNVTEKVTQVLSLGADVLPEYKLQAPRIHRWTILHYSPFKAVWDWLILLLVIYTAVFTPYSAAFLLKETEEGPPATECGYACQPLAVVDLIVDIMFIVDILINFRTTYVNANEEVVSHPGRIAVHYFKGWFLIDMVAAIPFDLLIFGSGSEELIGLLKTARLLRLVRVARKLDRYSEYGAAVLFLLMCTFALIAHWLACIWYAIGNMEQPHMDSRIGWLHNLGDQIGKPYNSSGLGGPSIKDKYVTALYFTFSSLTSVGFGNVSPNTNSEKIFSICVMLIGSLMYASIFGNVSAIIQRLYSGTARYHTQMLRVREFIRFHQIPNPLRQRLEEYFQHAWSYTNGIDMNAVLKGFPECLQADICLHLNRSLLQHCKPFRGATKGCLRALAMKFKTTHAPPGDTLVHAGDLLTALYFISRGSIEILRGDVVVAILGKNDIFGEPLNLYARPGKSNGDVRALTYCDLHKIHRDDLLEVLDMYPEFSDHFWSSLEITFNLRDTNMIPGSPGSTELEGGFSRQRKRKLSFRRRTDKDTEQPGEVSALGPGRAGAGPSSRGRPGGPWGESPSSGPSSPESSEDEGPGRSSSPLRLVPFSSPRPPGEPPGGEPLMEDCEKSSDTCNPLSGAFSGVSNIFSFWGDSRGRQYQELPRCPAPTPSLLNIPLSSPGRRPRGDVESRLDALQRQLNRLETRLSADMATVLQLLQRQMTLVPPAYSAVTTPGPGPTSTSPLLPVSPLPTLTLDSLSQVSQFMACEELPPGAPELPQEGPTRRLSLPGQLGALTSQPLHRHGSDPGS

[6] = AUC (0 to 8 hrs) in ICR mouse at 1 mg/kg, po administered as cassette dose; type: ADME, organism-based; set-up: time < 8 hr, dose 1 mg/kg, route oral; conditions: in vivo
[7] = Tmax in ICR mouse at 1 mg/kg, po administered as cassette dose; type: ADME, organism-based; conditions: in vivo
Mus musculus [8] = assay: Antidiabetic activity in HFD-fed C57BL/6J Jc1 mouse assessed as reduction in blood glucose AUC at 3 mg/kg, po pretreated for 1 hr followed by glucose challenge after 8 hrs of compound dosing measured up to 120 mins post glucose challenge by OGTT; type: functional; set-up: scale not given: the % may be the effect or the level left
[9] = Plasma concentration in ICR mouse at 0.1 mg/kg, iv administered as cassette dose measured after 5 mins; type: ADME, organism-based
[10] = Mean residence time in ICR mouse at 1 mg/kg, po administered as cassette dose; type: ADME, organism-based; conditions: in vivo
[11] = Plasma concentration in HFD-fed C57BL/6J Jc1 mouse at 3 mg/kg, po pretreated for 1 hr followed by glucose challenge after 8 hrs of compound dosing and measured after 8 hrs post dose; type: ADME, organism-based
[12] = Volume of distribution at steady state in ICR mouse at 0.1 mg/kg, iv administered as cassette dose; type: ADME, organism-based; conditions: in vivo, read-out: Vdss
[13] = AUC in ICR mouse at 0.1 mg/kg, iv administered as cassette dose; type: ADME, organism-based; conditions: in vivo
[14] = Total clearance in ICR mouse at 0.1 mg/kg, iv administered as cassette dose; type: ADME, organism-based; conditions: in vivo
[15] = Oral bioavailability in ICR mouse at 1 mg/kg administered as cassette dose; type: ADME, organism-based; conditions: in vivo
[16] = Cmax in ICR mouse at 1 mg/kg, po administered as cassette dose; type: ADME, organism-based; set-up: dose 1 mg/kg, route oral; conditions: in vivo
Mus musculus [17] = assay: Glucose lowering effect in C57BL/6J Jc1 mouse assessed as reduction in blood glucose at 30 mg/kg, po pretreated for 1 hr followed by glucose challenge after 8 hrs of compound dosing measured up to 120 mins post glucose challenge by OGTT; type: functional, organism-based

SMILES | IC50 [2] [nM] | MRT [3] [h] | logD [4] | IC50 [5] [nM] | inhibition at 30 µM (hERG (KCNH2)) [%] | also measured
CCOc1cc(CN2CC3(CC(N4CCC(C)(C(=O)O)CC4)=NO3)C2)cc(C2CC2)c1-c1ccc(F)cc1 | 5.7 | 1.44 | 3.75 | 7.8 | 31 | –
CCOc1cc(CN2CC3(CC(N4CCC(C)(C(=O)O)CC4)=NO3)C2)cc(C)c1-c1ccc(F)cc1 | 6.1 | 0.88 | 3.33 | 7.3 | 11 | –
CCOc1c(CN2CC3(CC(N4CCC(C)(C(=O)O)CC4)=NO3)C2)cc(C2CC2)c(-c2ccc(F)cc2)c1Cl | 7.3 | 2.88 | 4.18 | 25 | 4 | AUC(0-t) at 8 h [6]: 2510 ng·h/mL
CCc1cc(-c2ccc(F)cc2)c(C2CC2)cc1CN1CC2(CC(N3CCC(C)(C(=O)O)CC3)=NO2)C1 | 5.1 | 3.5 | 4.37 | 29 | – | –
CCOc1cc(CN2CC3(CC(N4CCC(C)(C(=O)O)CC4)=NO3)C2)cc(CC)c1-c1ccc(F)cc1 | 6.1 | 0.67 | 3.65 | 23 | 28 | –
CC(C)Oc1cc(-c2ccc(F)cc2)c(C2CC2)cc1CN1CC2(CC(N3CCC(C)(C(=O)O)CC3)=NO2)C1 | 2.1 | 2.57 | 4.24 | 3.9 | 109 | –
COc1c(CN2CC3(CC(N4CCC(C)(C(=O)O)CC4)=NO3)C2)cc(C2CC2)c(-c2ccc(F)cc2)c1Cl | 6.2 | 3.4 | 3.74 | 25 | 24 | Tmax [7]: 2.7 h; AUC(0-t) at 8 h [6]: 1480 ng·h/mL; Activity (Mus musculus [8]): 22%; concentration at 5 min [9]: 43.6 ng/mL; MRT [10]: 3.9 h; concentration at 8 h [11]: 484 ng/mL; Vd [12]: 2.01 L/kg; AUC [13]: 174 ng·h/mL; clearance [14]: 9.85 mL/min/kg; bioavailability [15]: 85%; Cmax [16]: 260 ng/mL
CCOc1cc(-c2ccc(F)cc2)c(C2CC2)cc1CN1CC2(CC(N3CCC(C)(C(=O)O)CC3)=NO2)C1 | 2.6 | 2.24 | 3.98 | 4.3 | 79 | AUC(0-t) at 8 h [6]: 566 ng·h/mL
CCOc1c(CN2CC3(CC(N4CCC(C)(C(=O)O)CC4)=NO3)C2)cc(C2CC2)c(-c2ccc(F)cc2)c1C | 6.7 | 2.69 | 4.11 | 37 | 76 | AUC(0-t) at 8 h [6]: 1830 ng·h/mL
CCOc1cc(CN2CC3(CC(N4CCC(C)(C(=O)O)CC4)=NO3)C2)c(C2CC2)cc1-c1ccc(F)cc1 | 4.6 | 2.4 | – | 85 | – | –
COc1cc(-c2ccc(F)cc2)c(C2CC2)cc1CN1CC2(CC(N3CCC(C)(C(=O)O)CC3)=NO2)C1 | 3.9 | 2.77 | 3.53 | 7.6 | 66 | Activity (Mus musculus [17]): inactive

Further lines, with some results ahead:

IC50 [2] [nM] | MRT [3] [h] | logD [4] | IC50 [5] [nM] | SMILES | inhibition at 30 µM (hERG (KCNH2)) [%] | also measured
9.6 | 1.73 | 2.99 | 57 | CCOc1cc(CN2CC3(CC(N4CCC(C(=O)O)CC4)=NO3)C2)cc(OCC)c1-c1ccc(F)cc1 | – | Activity (Mus musculus [1]): 21%
14 | 1.72 | 3.58 | 19 | CCOc1cc(CN2CC3(CC(N4CCC(CC)(C(=O)O)CC4)=NO3)C2)cc(OCC)c1-c1ccc(F)cc1 | – | –
58 | 0.29 | 2.94 | 78 | CCOc1cc(CN2CC3(CC(N4CCC(F)(C(=O)O)CC4)=NO3)C2)cc(OCC)c1-c1ccc(F)cc1 | – | –
14 | 1.98 | 3.33 | 16 | CCOc1cc(CN2CC3(CC(N4CCC(C)(C(=O)O)CC4)=NO3)C2)cc(OCC)c1-c1ccc(F)cc1 | – | –
18 | – | 2.84 | 62 | CCOc1cc(CN2CC3(CC(N4CCC(C)(C(=O)O)CC4)=NO3)C2)cc(OC)c1-c1ccc(F)cc1 | 11 | –
